Consider seven molecules from paper PMC8105311 (Scientific Reports, 2021).

For series [1] the following is noted: cited from earlier work.
Series [2] is described as follows: Dissolution time of cisplatin/TMG powder vs native cisplatin powder. The series is classed as physicochemical. To be noted: native cisplatin powder in 50 wt% TMG aq. The procedure:
(§1) The platinating agent (10 mM) was added to the 50 wt% TMG aq. (1 mL) and solubilized by stirring for 1 h. The resulting solution was left for more than one day. The resulting solution was freeze-dried and a pale yellow powder was obtained.
The yellow precipitates are undissolved cisplatin.

In the next series the test system is MDA-MB-231 cells. Briefly: Anticancer efficiency of cisplatin (cell viability, CellTiter 96 Aqueous One Solution). The format is cell-based, human. The settings on record: final 0.1-100 µM. The procedure:
MDA-MB-231 human breast cancer cell was kindly gifted from Prof. Erik Sahai (The Francis-Crick Institute, UK) and described previously^7. The cells were grown and maintained as monolayer cultures in 5% CO2 and humidified atmosphere at 37 °C, using Dulbecco's modified Eagle medium (high glucose with L-glutamine and phenol red, Fujiﬁlm Wako Pure Chemical Corporation), 10 vol% fetal bovine serum (Sigma-Aldrich Co., Llc.), and penicillin–streptomycin solution (×100; Fujiﬁlm Wako Pure Chemical Corporation). The cells were subcultured every 3–5 days by using trypsin solution (0.5w/v% trypsin—5.3mmol/L EDTA·4Na solution without phenol red (×10), Fujiﬁlm Wako Pure Chemical Corporation).
Anticancer efficiency of cisplatin
MDA-MB-231 cells (5,000 cells/well) were seeded to each well of a 96-well plate and then pre-cultured for 24 h. […] The solutions were added to the media to be 100, 10, 1, and 0.1 µM. The cells were cultured for 72 h and the cell viability was investigated with CellTiter 96® Aqueous One Solution.
as §1

A short description of series [3]: 195Pt NMR of ligand exchange of cisplatin in solution. The format is physicochemical. The settings on record: for Detection of Pt species by 195Pt NMR: DMSO aq. equimolar to 50 wt% TMG aq., day 1. The procedure:
^195Pt NMR spectrometry and mass spectrometry
After leaving it at room temperature, the resulting solution was measured at Day 5 and Day 10. We used co-axial tubes and K2[PtCl4] in D2O (for adjusting shim) was in the inner tube.
(1 mL) was prepared and left for one day. The resulting solution was measured by ^195Pt NMR (Day 1; 25,000 scans). NaCl (80 mg) was added and stirred. The solution was left and measured (Day2–4; 25,000 scans). In the case of DMSO aq., the concentration of DMSO uesd was adjusted to be equimolar to 50 wt% TMG aq.

A further series has as its system mice. Also on record: method as in PMID 25488130. The settings on record: cited from earlier work.
Series [4] is described as follows: Solubility of L-carnitine in water. The series is classed as physicochemical.

On to `C[S+](C)[O-]` [DMSO, dimethyl sulfoxide], for which the “Kamlet-Taft β value (hydrogen bond basicity)” value in series [1] was 0.83.

As to `O` [water], the “Kamlet-Taft β value (hydrogen bond basicity)” value in series [1] is “around 0.15”.

Regarding `N.N.[Cl][Pt][Cl]` [cisplatin], the “Time required for dissolution” value in series [2] is reported as “approximately 1 h”. For the same molecule, the MDA-MB-231 cell viability entry with MDA-MB-231 cells (10 mM cisplatin stock in 50 wt% TMG aq., 72 h) is “decreased in a dose-dependent manner”; with MDA-MB-231 cells (solution regenerated with water from freeze-dried cisplatin/TMG powder (10 mM cisplatin in 50 wt% TMG aq.)), “killed MDA-MB-231 cells in a dose-dependent manner”. Also, the “Anticancer effect (MDA-MB-231 cell viability)” value with MDA-MB-231 cells (cisplatin stock in 50 wt% L-carnitine aq., 72 h) is recorded as “retained the anticancer effect”; with MDA-MB-231 cells (cisplatin stock in DMSO, 72 h), “abolished”. In addition, the “Ligand exchange (195Pt NMR)” value in series [3] (50 wt% TMG aq., immediately after dissolution) was “ligand exchange did not occur”. In addition, the Chloride ligand exchanged in series [3] (50 wt% TMG aq., room temperature, after 10 days) was 66 mol%. The “Integral value of the signal of the emerging compound (Pt(NH3)2Cl2 signal fixed as 1.0)” value is 1.25 in series [3] (50 wt% TMG aq., room temperature, day 5) and 1.90 in series [3] (50 wt% TMG aq., room temperature, day 10). Moreover, the “Detection of Pt species by 195Pt NMR” value in series [3] is “not detected”.

Regarding `C[N+](C)(C)CC(=O)O` [TMG, Trimethylglycine], the “Effect on nephrotoxicity when cisplatin is administered” value with mice was “reduces nephrotoxicity”.

As for `C[N+](C)(C)C[C@H](O)CC(=O)[O-]` [L-carnitine], the Solubility in water result in series [4] is “approximately 70 wt%”.

With `N.N.O.[Cl][Pt+]` [[Pt(NH3)2Cl(H2O)]^+], the “Reversion to Pt(NH3)2Cl2 in the presence of NaCl” value in series [3] (50 wt% TMG aq., after NaCl addition) is “reverted to Pt(NH3)2Cl2”. Besides, the “Ratio of Pt species by 195Pt NMR” value is on record as 2 mol% in series [3] (50 wt% TMG aq., after NaCl addition, day 2); 0 mol% in series [3] (50 wt% TMG aq., after NaCl addition, day 3); 0 mol% in series [3] (50 wt% TMG aq., after NaCl addition, day 4); 17 mol% in series [3] (50 wt% TMG aq., left for 24 h (day 1), before NaCl addition). For the same molecule, the “Detection of Pt species by 195Pt NMR” value in series [3] was “not detected”.

For the molecule [Pt(NH3)Cl(DMSO)]^+, the “Detection of Pt species by 195Pt NMR” value in series [3] is “detected”. In addition, in series [3] (DMSO aq., after NaCl addition), the “Reversion to Pt(NH3)2Cl2 in the presence of NaCl” value is “scarcely reverted to Pt(NH3)2Cl2”.
